Data published in PubChem BioAssay (NCI).
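Cultured in 96-well plates, cells were exposed to test compound for 48 hours across five concentrations. GI50: concentration for 50% inhibition of growth. The concentration for full growth arrest is given as TGI.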

What was measured:
Assay in all cases: inhibition of tumour cell growth, NCI panel, 48 h
SW-620 colon = system: SW-620 colon
DU-145 prostate = system: DU-145 prostate
SNB-75 CNS = system: SNB-75 CNS
K-562 leukemia = system: K-562 leukemia
RXF 393 renal = system: RXF 393 renal
LOX IMVI melanoma = system: LOX IMVI melanoma
UACC-257 melanoma = system: UACC-257 melanoma
UACC-62 melanoma = system: UACC-62 melanoma
OVCAR-5 ovarian = system: OVCAR-5 ovarian
M14 melanoma = system: M14 melanoma

SMILES | GI50 (SW-620 colon) [µM] | TGI (SW-620 colon) [µM] | GI50 (DU-145 prostate) [µM] | TGI (DU-145 prostate) [µM] | GI50 (SNB-75 CNS) [µM] | TGI (SNB-75 CNS) [µM] | GI50 (K-562 leukemia) [µM] | TGI (K-562 leukemia) [µM] | GI50 (RXF 393 renal) [µM] | TGI (RXF 393 renal) [µM] | GI50 (LOX IMVI melanoma) [µM] | TGI (LOX IMVI melanoma) [µM] | GI50 (UACC-257 melanoma) [µM] | TGI (UACC-257 melanoma) [µM] | GI50 (UACC-62 melanoma) [µM] | TGI (UACC-62 melanoma) [µM] | GI50 (OVCAR-5 ovarian) [µM] | TGI (OVCAR-5 ovarian) [µM] | GI50 (M14 melanoma) [µM] | TGI (M14 melanoma) [µM]
NC1=NC(c2ccc(Cl)cc2)C2=C(N1)/C(=C/c1ccc(Cl)cc1)CCC2 (stereo unspecified) | 3.24 | 12.4 | 7.91 | 29.6 | 16.4 | 59.3 | 6.92 | > 87.8 | 2.05 | 4.45 | 1.85 | 3.64 | 7.14 | 28.1 | 13.3 | 34.8 | 25.2 | 63.3 | 2.77 | 11.6
COc1ccc2c(c1)C(=O)/C(=C/c1ncc([N+](=O)[O-])n1C)O2 | 0.0843 | 0.426 | 0.868 | 2.98 | 1.12 | 2.63 | 0.245 | – | 1.01 | 3.03 | 0.179 | 0.481 | 1.41 | 6.82 | 1.29 | 3.12 | 1.75 | 5.67 | 0.244 | 0.737
C=C(c1ccc(C(=O)N(C)c2ccccc2N)cc1)C(C)N1C(=O)[C@H]2CCCN2C(=O)c2ccccc21 (stereo partly specified) | 38.1 | > 100 | 33.3 | > 100 | 17.1 | 77.5 | 19.3 | > 100 | > 100 | > 100 | 34.2 | > 100 | 34.7 | > 100 | 24 | > 100 | 11.5 | > 100 | 50.1 | > 100
C=CC1CC12C(=O)C1OC2(C)C2C(=O)c3c(O)ccc(O)c3C(=O)C12 (stereo unspecified) | 2.32 | 5.88 | 3.91 | 13 | 6.03 | 15.3 | 2.48 | 6.95 | 2.11 | 5.3 | 2.35 | 10.6 | 3.75 | 11.2 | 2.37 | 6.31 | 5.69 | 12 | 3.58 | 14.7
N#CC1=C(N)NC(=O)NC12Nc1ccccc1S2 (stereo unspecified) | 28.8 | > 72.6 | 12.5 | 35.3 | 51 | > 100 | 31.8 | > 93 | 16.9 | > 52.7 | 22.9 | > 59.2 | 1.42 | – | 14.7 | 36.4 | 27 | > 72.3 | 19.7 | 42.5
COc1cc(-c2nc3sc4c(c3c(=O)[nH]2)CCCCCC4)cc(OC)c1OC | 1.5 | > 33.2 | 1.78 | > 33.2 | 0.701 | 2.52 | 0.263 | > 33.2 | 0.636 | 2.55 | 1.42 | > 33.2 | 3 | > 33.2 | 0.743 | 30.3 | 2.23 | > 33.2 | 0.831 | > 33.2
C/C(=N\N=C(/[Se])N1CC2CCC(CC2)C1)c1ccccn1 | – | 0.608 | – | 1.68 | – | 1.11 | – | 0.575 | – | 0.359 | – | 0.64 | – | 0.569 | – | 0.711 | – | 2.51 | – | 0.701
COc1cc(/C=C2\CN(C)C/C(=C\c3cc(CN4CCCCC4)c(O)c(OC)c3)C2=O)cc(CN2CCCCC2)c1O | 3.27 | 12.6 | 3.88 | 13.7 | 1.99 | 9.13 | 3.12 | 35.2 | 2.01 | 6.86 | 2.34 | 6.19 | 7.99 | 22 | 7.2 | 20.3 | 2.29 | 5.81 | 3.02 | 10.8
COc1cc(/C=C2\CCC(CN(C)C)C2=O)ccc1OC(=O)c1ccccc1 (stereo unspecified) | – | 17.8 | – | 29.8 | – | 35 | – | 9.04 | – | 15.4 | – | 13 | – | 26.6 | – | 30.9 | – | 33.8 | – | 22.9
O=C(O)c1cc(N=Cc2ccccc2O)cc(C(=O)O)c1 | – | > 100 | – | > 100 | – | > 100 | – | > 100 | – | > 100 | – | > 100 | – | > 100 | – | > 100 | – | > 100 | – | > 100
Cc1c2c[n+](C(C)C)ccc2c(C)c2c1[nH]c1ccccc12 | 3.63 | 49.7 | 4.74 | 54.1 | 1.34 | 40.9 | 2.72 | 29 | 6.19 | > 100 | 9.17 | 32.1 | – | – | 2.7 | 15 | 5.95 | > 100 | 3.77 | 17
